Test results as given in BindingDB's records for doi:10.1016/j.jmb.2007.03.021 (University of Marburg, 2007).
pIC50: −log10 of the molar value.

Target: Aldo-keto reductase family 1 member B1 (Homo sapiens, UniProt P15121)
Experiment: Enzyme Inhibition Assay
Conditions: pH 6.2; 30 °C
Protocol: The activity of the test enzyme was determined spectrophotometrically by monitoring the change in absorbance at 340 nm, which is due to the oxidation of NADPH or the reduction of NAD+ catalyzed by ALR2. The determination of the IC50 values was performed by using linear regression analysis of the log dose response curve.

| SMILES | pIC50 |
| --- | --- |
| Nc1cccc2ccc3c(c12)C(=O)N(CC(=O)O)S3(=O)=O [2-(13-amino-3,5,5-trioxo-5-thia-4-azatricyclo[7.4.0.0^{2,6}]trideca-1,6,8,10,12-pentaen-4-yl)acetic acid] | 4.00 |
| O=C(O)CN1C(=O)c2c(ccc3cccc([N+](=O)[O-])c23)S1(=O)=O [2-(13-nitro-3,5,5-trioxo-5-thia-4-azatricyclo[7.4.0.0^{2,6}]trideca-1,6,8,10,12-pentaen-4-yl)acetic acid] | 3.72 |
| O=C(O)CN1C(=O)c2c(c(C(=O)O)cc3ccccc23)S1(=O)=O [2-(carboxymethyl)-1-oxo-1,2-dihydronaphtho[1,2-d]isothiazole-4-carboxylic acid 3,3-dioxide] | 6.85 |
| O=C(O)COC(=O)c1cc2ccccc2c2c1S(=O)(=O)N(CC(=O)O)C2=O [2-{[4-(carboxymethyl)-3,5,5-trioxo-5-thia-4-azatricyclo[7.4.0.0^{2,6}]trideca-1,6,8,10,12-pentaen-7-yl]carbonyloxy}acetic acid] | 6.26 |
| O=C(O)CN1C(=O)c2c(ccc3c([N+](=O)[O-])cccc23)S1(=O)=O [2-(10-nitro-3,5,5-trioxo-5-thia-4-azatricyclo[7.4.0.0^{2,6}]trideca-1,6,8,10,12-pentaen-4-yl)acetic acid] | 3.74 |
| Nc1cccc2c3c(ccc12)S(=O)(=O)N(CC(=O)O)C3=O [2-(10-amino-3,5,5-trioxo-5-thia-4-azatricyclo[7.4.0.0^{2,6}]trideca-1,6,8,10,12-pentaen-4-yl)acetic acid] | 4.00 |
| O=C(O)CN1C(=O)c2c(ccc3ccccc23)S1(=O)=O [2-(3,5,5-trioxo-5-thia-4-azatricyclo[7.4.0.0^{2,6}]trideca-1,6,8,10,12-pentaen-4-yl)acetic acid] | 5.00 |
| CN1C(=O)c2c(c(C(=O)O)cc3ccccc23)S1(=O)=O [4-methyl-3,5,5-trioxo-5-thia-4-azatricyclo[7.4.0.0^{2,6}]trideca-1,6,8,10,12-pentaene-7-carboxylic acid] | 4.06 |
